Reference: patent publication US20030162777A1, “Novel N-acylated heterocycles” (Recordati S.A., priority 2001, published 2003)

target: T1, human 5HT1A-serotonergic receptor (Homo sapiens, UniProt P08908); experiment: Radioligand binding to recombinant 5-HT1A receptors; conditions: [3H]8-OH-DPAT 1 nM, membranes of HeLa cells with human 5-HT1A receptor; Ki from IC50 by Cheng & Prusoff; read-out: Binding affinity for 5HT1A receptors, Ki
T1 construct: expressed in transfected cells; host or cells: HeLa (human cell line), stably transfected; cell membranes used
T1 sequence (P08908 1-422): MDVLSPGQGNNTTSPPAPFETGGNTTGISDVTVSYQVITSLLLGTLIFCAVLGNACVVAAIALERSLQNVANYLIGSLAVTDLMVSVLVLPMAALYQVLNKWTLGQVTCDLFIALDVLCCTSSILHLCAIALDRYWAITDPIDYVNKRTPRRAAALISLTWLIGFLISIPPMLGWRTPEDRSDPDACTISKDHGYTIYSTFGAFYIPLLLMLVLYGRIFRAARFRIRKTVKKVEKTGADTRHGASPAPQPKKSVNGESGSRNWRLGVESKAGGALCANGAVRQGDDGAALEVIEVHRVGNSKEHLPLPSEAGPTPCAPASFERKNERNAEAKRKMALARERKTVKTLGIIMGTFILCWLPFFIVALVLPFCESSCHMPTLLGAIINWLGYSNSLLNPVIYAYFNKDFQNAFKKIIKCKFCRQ
Method: Genomic clone G-21 coding for the human 5HT1A-serotonergic receptor was stably transfected in a human cell line (HeLa). HeLa cells were grown as monolayers in Dulbecco's modified Eagle medium (DMEM), containing 10% foetal bovine serum, gentamicin ([…]) and 5% carbon dioxide, at 37° C. The cells were detached from the growth flask at 95% confluence by a cell scraper and were lysed in cold 5 mM Tris and 5 mM EDTA buffer (pH 7.4). The homogenates were centrifuged at 40000×g×20 minutes and the pellets were resuspended in a small volume of cold 5 mM Tris and 5 mM EDTA buffer (pH 7.4) and immediately frozen and stored at −70° C. until use. On the day of experiment, the cell membranes were resuspended in incubation buffer: 50 mM Tris HCl (pH 7.4), 2.5 mM MgCl2, […] (Fargin et al., Nature 335, 358-360, 1988). The membranes were incubated in a final volume of 1 ml for 30 minutes at 30° C. with 1 nM [^3H]8-OH-DPAT, in the absence or presence of the test compounds. Non-specific binding was determined in the presence of 10 μM 5-HT. Incubation was stopped by addition of cold Tris-HC 1 buffer and rapid filtration through a 0.2%-polyethyleneimine-pretreated Whatman-GF/B or Schleicher-&-Schuell-GF52 filter.
The affinity of the tested compounds was evaluated as inhibition of specific binding of the radioligand to 5-HT1A receptors (IC50) by using the non-linear curve-fitting program Allfit (De Lean et al., Am. J. Physiol. 235, E97-E102 (1978). The IC50 value was converted to an affinity constant (Ki) by the equation of Cheng & Prusoff (Cheng Y. C., Prusoff W. H., Biochem. Pharmacol. 22, 3099-3108 (1973)).

`O=C(C1CCCCC1)N1c2ccccc2CCC1CN1CCN(c2cccc(Cl)n2)CC1` (centres unmarked) [Example 72A65, 1-(1-Cyclohexanecarbonyl-1,2,3,4-tetrahydroquinolin-2-ylmethyl)-4-(6-chloropyridin-2-yl)piperazine] and `Cn1cc(C(=O)N2c3ccccc3CCC2CN2CCN(c3cccc4[nH]ccc34)CC2)c2ccccc21` (centres unmarked) [Example 68A47, 1-(4-Indolyl)-4-[1-(1-methyl-3-indolylcarbonyl)-1,2,3,4-tetrahydroquinoline-2-ylmethyl]piperazine] are within 1.5-fold of each other in Ki: 15.5 nM for the first, 17.1 nM for the second.

`O=C(c1ccccc1)N1c2ccccc2CCC1CN1CCN(c2cccc3[nH]ccc23)CC1` (centres unmarked) [Example 24A4, 1-(1-Benzoyl-1,2,3,4-tetrahydroquinoline-2-ylmethyl)-4-(4-indolyl)piperazine] and “1-(4-Chloro-2-1-propoxyphenyl)-4-(1-cyclohexanecarbonyl-1,2,3,4-tetrahydroquinoline-2-ylmethyl)piperazine [Example 60A]” are within 1.5-fold of each other in Ki: 9.3 nM for the first, 10.1 nM for the second.

Compared with `O=C(C1CCCCC1)N1c2ccc(OC(F)(F)F)cc2CCC1CN1CCN(c2cccc3[nH]ccc23)CC1` (centres unmarked) [Example 26, 1-(1-Cyclohexanecarbonyl-6-trifluoromethoxy-1,2,3,4-tetrahydroquinoline-2-ylmethyl)-4-(4-indolyl)piperazine], `O=C(C1CCCCC1)N1c2ccccc2CCC1CN1CCN(c2cc(Cl)ccc2F)CC1` (centres unmarked) [Example 60A1, 1-(5-Chloro-2-fluorophenyl)-4-(1-cyclohexanecarbonyl-1,2,3,4-tetrahydroquinoline-2-ylmethyl)piperazine] is 5.9-fold lower in Ki: 47.9 nM for the first, 8.1 nM for the second. The second binds more tightly here.

First: O=C(c1ccccc1Cl)N1c2ccccc2CCC1CN1CCN(c2cccc3[nH]ccc23)CC1 (centres unmarked) [Example 68A4, 1-[1-(2-Chlorobenzoyl)-1,2,3,4-tetrahydroquinoline-2-ylmethyl]-4-(4-indolyl)piperazine]
Second: O=C(C1CCCCC1)N1c2ccccc2CCC1CN1CCN(c2cccc(Cl)c2Cl)CC1 (centres unmarked) [Example 72A8, 1-(1-Cyclohexanecarbonyl-1,2,3,4-tetrahydroquinolin-2-ylmethyl)-4-(2,3-dichlorophenyl)piperazine]
The Ki of the first is 6.7-fold lower: 4.7 nM for the first, 31.6 nM for the second.

Going from `O=C(C1CCCCC1)N1c2cc(F)ccc2CCC1CN1CCN(c2cccc3[nH]ccc23)CC1` (centres unmarked) [Example 46, 1-(1-Cyclohexanecarbonyl-7-fluoro-1,2,3,4-tetrahydroquinoline-2-ylmethyl)-4-(4-indolyl)piperazine] to `COc1ccc(C(F)(F)F)cc1N1CCN(CC2CCc3ccccc3N2C(=O)C2CCCCC2)CC1` (centres unmarked) [Example 60A9, 1-(1-Cyclohexanecarbonyl-1,2,3,4-tetrahydroquinoline-2-ylmethyl)-4-(2-methoxy-5-trifluoromethylphenyl)piperazine], the Ki falls from 11.2 nM to 6.5 nM (1.7-fold).

Going from `CC(C)(C)NC(=O)N1c2ccccc2CCC1CN1CCN(c2cccc3c2OCCO3)CC1` (centres unmarked) [Example 76A13, 1-(2,3-Dihydrobenzo[1,4]dioxin-5-yl)-4-[1-(1,1-dimethylethylaminocarbonyl)-1,2,3,4-tetrahydroquinolin-2-ylmethyl]piperazine] to `O=S(=O)(Cc1ccccc1)N1c2ccccc2CCC1CN1CCN(c2cccc3[nH]ccc23)CC1` (centres unmarked) [Example 70A6, 1-(4-Indolyl)-4-(1-phenylmethylsulphonyl-1,2,3,4-tetrahydroquinoline-2-ylmethyl)piperazine], the Ki rises from 2.3 nM to 4.7 nM (2-fold).

First: O=C(C1CCCCC1)N1c2ccccc2CCC1CN1CCN(c2cc(Cl)cc3c2OCCO3)CC1 (centres unmarked) [Example 60A11, 1-(7-Chloro-2,3-dihydro-1,4-benzodioxin-5-yl)-4-(1-cyclohexanecarbonyl-1,2,3,4-tetrahydroquinoline-2-ylmethyl)piperazine]
Second: O=C(C1CCCCC1)N1c2ccccc2CCC1CN1CCN(c2ncccn2)CC1 (centres unmarked) [Example 35A21, 1-(1-Cyclohexanecarbonyl-1,2,3,4-tetrahydroquinoline-2-ylmethyl)-4-(2-pyrimidinyl)piperazine]
The Ki of the first is 1.7-fold lower: 10.6 nM for the first, 18.2 nM for the second. The first binds more tightly here.

First: O=C(c1ccc[nH]1)N1c2ccccc2CCC1CN1CCN(c2cccc3[nH]ccc23)CC1 (centres unmarked) [Example 68A, 1-(4-Indolyl)-4-[1-(2-pyrrolylcarbonyl)-1,2,3,4-tetrahydroquinoline-2-ylmethyl]piperazine]
Second: COc1cc(F)ccc1N1CCN(CC2CCc3cc(N)ccc3N2C(=O)C2CCCCC2)CC1 (centres unmarked) [Example 85, 1-(6-Amino-1-cyclohexanecarbonyl-1,2,3,4-tetrahydroquinoline-2-ylmethyl)-4-(4-fluoro-2-methoxyphenyl)piperazine]
The Ki of the first is 4.5-fold lower: 9.2 nM for the first, 41.2 nM for the second. The first binds more tightly here.

First: COc1cc(F)ccc1N1CCN(CC2CCc3c(Cl)cccc3N2C(=O)C2CCCCC2)CC1 (centres unmarked) [Example 55, 1-(5-Chloro-1-cyclohexanecarbonyl-1,2,3,4-tetrahydroquinoline-2-ylmethyl)-4-(4-fluoro-2-methoxyphenyl)piperazine]
Second: CCOc1cc(Cl)ccc1N1CCN(CC2CCc3ccccc3N2C(=O)C2CCCCC2)CC1 (centres unmarked) [Example 62A3, 1-(4-Chloro-2-ethoxyphenyl)-4-(1-cyclohexanecarbonyl-1,2,3,4-tetrahydroquinoline-2-ylmethyl)piperazine]
The Ki of the first is 2.4-fold lower: 2.4 nM for the first, 5.7 nM for the second.

First: Cn1ccc2c(N3CCN(CC4CCc5ccccc5N4C(=O)C4CCCCC4)CC3)cccc21 (centres unmarked) [Example 15, 1-(1-Cyclohexanecarbonyl-1,2,3,4-tetrahydroquinoline-2-ylmethyl)-4-(1-methyl-4-indolyl)piperazine]
Second: C[C@@H](NC(=O)N1c2ccccc2CCC1CN1CCN(c2cccc3[nH]ccc23)CC1)c1ccccc1 (single isomer, unassigned) [Example 69A5]
The Ki of the first is 1.8-fold lower: 8.9 nM for the first, 15.7 nM for the second.

Going from `O=C(C1CCCCC1)N1c2ccc(O)cc2CCC1CN1CCN(c2cccc3[nH]ccc23)CC1` (centres unmarked) [Example 50, 1-(1-Cyclohexanecarbonyl-6-hydroxy-1,2,3,4-tetrahydroquinoline-2-ylmethyl)-4-(4-indolyl)piperazine] to `O=C(CC1CC1)N1c2ccccc2CCC1CN1CCN(c2nccc3ccccc23)CC1` (centres unmarked) [Example 75A2, 1-[1-(2-Cyclopropylacetyl)-1,2,3,4-tetrahydroquinolin-2-ylmethyl]-4-(1-isoquinolinyl)piperazine], the Ki falls from 41 nM to 10.1 nM (4.1-fold). The second binds more tightly here.

Going from `Cc1ccc(S(=O)(=O)n2ccc(C(=O)N3c4ccccc4CCC3CN3CCN(c4cccc5[nH]ccc45)CC3)c2)cc1` (centres unmarked) [Example 68A57, 1-(4-Indolyl)-4-[1-[1-(4-methylphenylsulphonyl)pyrrole-3-carbonyl]-1,2,3,4-tetrahydroquinoline-2-ylmethyl]piperazine] to `O=C(c1ccc[nH]1)N1c2ccccc2CCC1CN1CCN(c2cccc3c2OCCO3)CC1` (centres unmarked) [Example 76A2, 1-(2,3-Dihydrobenzo[1,4]dioxin-5-yl)-4-[1-(2-pyrrolylcarbonyl)-1,2,3,4-tetrahydroquinolin-2-ylmethyl]piperazine], the Ki falls from 33 nM to 5.1 nM (6.5-fold). The second binds more tightly here.

First: O=C(C1CCCCC1)N1c2ccccc2CCC1CN1CCN(c2ccccn2)CC1 (centres unmarked) [Example 72A93, 1-(1-Cyclohexanecarbonyl-1,2,3,4-tetrahydroquinolin-2-ylmethyl)-4-(2-pyridyl)piperazine]
Second: O=C(N1CCCC1)N1c2ccccc2CCC1CN1CCN(c2cccc3[nH]ccc23)CC1 (centres unmarked) [Example 33, 1-(4-Indolyl)-4-(1-pyrrolidinecarbonyl-1,2,3,4-tetrahydroquinoline-2-ylmethyl)piperazine]
The Ki of the first is 6.1-fold lower: 7.8 nM for the first, 47.7 nM for the second.

`COc1cc(Cl)ccc1N1CCN(CC2CCc3ccccc3N2C(=O)C2CCCCC2)CC1` (centres unmarked) [Example 62A2, 1-(4-Chloro-2-methoxyphenyl)-4-(1-cyclohexanecarbonyl-1,2,3,4-tetrahydroquinoline-2-ylmethyl)piperazine] and `O=C(Cc1ccccc1)N1c2ccccc2CCC1CN1CCN(c2cccc3[nH]ccc23)CC1` (centres unmarked) [Example 68A2, 1-(4-Indolyl)-4-[1-(2-phenylacetyl)-1,2,3,4-tetrahydroquinoline-2-ylmethyl]piperazine] are within 1.5-fold of each other in Ki: 15.6 nM for the first, 13.9 nM for the second.

With `CCOc1ccc(C(=O)N2c3ccccc3CCC2CN2CCN(c3cccc4[nH]ccc34)CC2)cc1` (centres unmarked) [Example 68A69, 1-[1-(4-Ethoxybenzoyl)-1,2,3,4-tetrahydroquinoline-2-ylmethyl]-4-(4-indolyl)piperazine] the Ki was 4.2 nM.
